{"source": "patent US8129532B2", "about": "“Amino(oligo)thiophene dyes, preparation thereof, and optical methods of use” (The University of Connecticut, priority 2007, dated 2012)", "key": {"membrane potential": {"system": "membrane potential", "conditions": "cited from earlier work"}, "neuroblastoma cells": {"system": "neuroblastoma cells", "assay": "SHG and 2PF imaging of stained neuroblastoma cells, 1064 nm fiber laser", "type": "cell-based, mouse", "conditions": "1064 nm excitation", "from_the_text": "For full details of our non-linear imaging microscope, we refer the reader to previously published descriptions. A. C. Millard, P. J. Campagnola, W. Mohler, A. Lewis, and L. M. Loew, “Second Harmonic Imaging Microscopy,” Meth. Enzymol. 361, 47-69 (2003); Millard, A. C., L. Jin, and L. M. Loew, “Second Harmonic Generation Imaging Microscopy with a High Power Ultrafast Fiber Laser,”Commercial and Biomedical Applications of Ultrafast Lasers. 5714-5716, 92-98 (2005); A. C. Millard, L. Jin, M.-D. Wei, J. P. Wuskell, A. Lewis, and L. M. Loew, “Sensitivity of Second Harmonic Generation from Styryl Dyes to Transmembrane Potential,” Biophys. J. 86, 1169-1176 (2004). Our current microscope combines a Fluoview (Olympus) scan-head and an Axiovert (Zeiss) inverted microscope constructed for multiple imaging methodologies including wide-field, one-photon excitation fluorescence imaging, as well as SHG and 2PF imaging. Our laser sources include a Mira (Coherent) Ti:sapphire laser and a Femtopower (Fianium) fiber laser operating at 1064 nm. […] Fluorescence is imaged (for linear imaging) or collected (for non-linear imaging) back through the excitation objective, while SHG is collected in the forward, transmitted light direction by a condenser, either 0.8 NA or 0.55 NA (Zeiss). […]"}, "[1]": {"assay": "One-photon fluorescence relative signal change per 100 mV", "conditions": "excitation / long-pass emission (nm) given", "from_the_text": "The left-most data columns of Table 1 are the absorption and emission maxima for one photon fluorescence in soybean multi-lamellar lipid vesicles used to mimic the membrane environment. The column indicating relative signal change for one-photon fluorescence also lists the excitation light source used and the lower bounds of the long-pass emission detected."}, "[2]": {"assay": "One-photon absorption and emission spectra in multilamellar lipid vesicles, water and ethanol", "type": "physicochemical", "conditions": "one photon; soybean multi-lamellar lipid vesicles", "from_the_text": "[…] The column indicating relative signal change for one-photon fluorescence also lists the excitation light source used and the lower bounds of the long-pass emission detected.\nAbsorption and emission spectra were obtained for a series of dyes with different acceptors: pyridinium (PY-1261), quinolinium (PY-212), and acridinium (PY-2240)."}}, "note": "Values joined by “and” are separate entries in the source; they are usually repeats but may differ in a detail not shown here. Equal entries are not always repeated."}
{"smiles": "CCN(CC)c1ccc(/C=C/C=C/C=C/c2cc[n+](CCC[N+](CC)(CC)CC)cc2)cc1.[Br-].[Br-]", "note": "[FM4-64]", "values": [{"measurement": "SHG sensitivity to membrane potential", "setting": "membrane potential; literature", "result": "< 10 % per 100 mV and 7.5-10 % per 100 mV"}]}
{"smiles": "CCCCN(CCCC)c1ccc(/C=C/c2cc[n+](CCC[N+](CC)(CC)CC)cc2)s1", "note": "[PY-1284]", "values": [{"measurement": "2PF and SHG image signal strength", "setting": "neuroblastoma cells", "result": "weak"}, {"measurement": "1PF Change (ΔF/F-100 mv)", "setting": "[1]", "result": "1.5E−002; 555/>610 ΔF/F-100 mv"}, {"measurement": "1PF Abs. Max", "setting": "[2]", "result": 536, "unit": "nm"}, {"measurement": "1PF Em. Max", "setting": "[2]", "result": 588, "unit": "nm"}]}
{"smiles": "CCCCN(CCCC)c1ccc2cc(/C=C/c3cc[n+](CCCS(=O)(=O)[O-])cc3)ccc2c1", "note": "[di-4-ANEPPS]", "values": [{"measurement": "SHG Kinetics (exponential time constant)", "setting": "membrane potential; literature (Millard 2005)", "result": 70.6, "unit": "ms"}]}
